Experimental data as given in patent US11912695B2, “Benzodiazepine derivatives as RSV inhibitors” (ENANTA PHARMACEUTICALS, INC., priority 2019, dated 2024).

What was measured:
[1] = tested on: Human RSV-B (genotype B, strain 9320); test: RSV-B assay (qPCR or ATPlite) in A549 cells; assay type: cell-based; settings: human respiratory syncytial virus, 144 h, strain 9320, MOI 0.5, 6 days post infection, qPCR or ATPlite readout
Text: Hep-2 cells, (originally derived from tumors grown in irradiated-cortisonised weanling rats that had been injected with epidermoid carcinoma tissue from a person's larynx, but later found to be indistinguishable from HeLa cells by PCR DNA analysis), were used for the culturing of genotype B, strain 9320. Flasks were inoculated with RSV-B and viral stocks were collected once cytopathic effect (CPE) was greater than 90%. Viral stocks in 25% sucrose media were snap frozen using liquid nitrogen to increase viral stability. Viral stock titers were quantified by tissue culture infectious dose 50% (TCID50) using 8,000 cells per well and 5-fold viral dilutions across a 96-well plate, cultured for 4 days. Viral stock titers were also quantified by a plaque forming unit assay, as described elsewhere.
The assay is run as follows: A549 cells (originally derived through explant culture from a person's carcinomatous lung tissue) are seeded into the inner 60 wells of a 96-well plate at 3,000 cells per well in a volume of 50 μL using A549 growth media (F-12K Media, 1% Penn/Strep, 1% nonessential amino acids, 10% heat-inactivated FBS). 2-fold serial dilutions of control and test compounds are added to the wells in duplicate in a total volume of 25 μL. Viral stock is then added to the wells at a multiplicity of infection (MOI) of 0.5 in a volume of 25 μL, bringing the total volume of each well to 100 μL. The MOI is calculated using the PFU/mL, or TCID50 if unavailable. Each 96-well plate has a control column of 6 wells with cells and virus but no compound (negative control, max CPE), a column with cells but no compound or virus (positive control, minimum CPE), and a column with no cells or virus or compound (background plate/reagent control). The control wells with cells but no virus are given an additional 25 μL of growth media containing an equal quantity of sucrose as those wells receiving the viral stock in order to keep consistent in media and volume conditions. The outer wells of the plate are filled with 125 μL of moat media (DMEM, 1% Penn/Strep) to act as a thermal and evaporative moat around the test wells. 6 days post infection, the plates are read using qPCR or ATP lite (50 μL added per well), which quantifies the amount of ATP (a measure of cell health) present in each well. Assay plates treated with APTlite are read using the Envision luminometer. […] EC50 ranges are as follows: A<0.4 μM; B 0.4-0.8 μM; C>0.8 μM.

[2] = tested on: Human RSV-A (“Long” strain); test: RSV-A assay (CPE, ATPlite) in Hep-2 cells; assay type: cell-based; settings: human respiratory syncytial virus, 120 h, MOI 0.1, 5-day incubation, ATPlite readout
Text: Hep-2 cells, (originally derived from tumors grown in irradiated-cortisonised weanling rats that had been injected with epidermoid carcinoma tissue from a person's larynx, but later found to be indistinguishable from HeLa cells by PCR DNA analysis), were used for the culturing of genotype A, “Long” strain RSV. Flasks were inoculated with RSV and viral stocks were collected once cytopathic effect (CPE) was greater than 90%. Viral stocks in 25% sucrose media were snap frozen using liquid nitrogen to increase viral stability. Viral stock titers were quantified by tissue culture infectious dose 50% (TCID50) using 8,000 cells per well and 3-fold viral dilutions across a 96-well plate, cultured for 4 days. Viral stock titers were also quantified by a plaque forming unit assay, as described elsewhere.
Following extensive parameter testing, the final assay is run as follows: Hep-2 cells are seeded into the inner 60 wells of a 96-well plate at 8,000 cells per well in a volume of 50 μL using Growth Media (DMEM without phenol red, 1% L-Glut, 1% Penn/Strep, 1% nonessential amino acids, 10% heat-inactivated FBS). 2-fold serial dilutions of control and test compounds are added to the wells in duplicate in a total volume of 25 μL. Viral stock is then added to the wells at a multiplicity of infection (MOI) of 0.1 in a volume of 25 μL, bringing the total volume of each well to 100 μL. The MOI is calculated using the PFU/mL, or TCID50 if unavailable. Each 96-well plate has a control column of 6 wells with cells and virus but no compound (negative control, max CPE), a column with cells but no compound or virus (positive control, minimum CPE), and a column with no cells or virus or compound (background plate/reagent control). The control wells with cells but no virus are given an additional 25 μL of growth media containing an equal quantity of sucrose as those wells receiving the viral stock in order to keep consistent in media and volume conditions. The outer wells of the plate are filled with 125 μL of moat media (DMEM, 1% Penn/Strep) to act as a thermal and evaporative moat around the test wells. Following a 5-day incubation period, the plates are read using ATPlite (50 μL added per well), which quantifies the amount of ATP (a measure of cell health) present in each well. Assay plates are read using the Envision luminometer. In parallel, cytotoxicity is examined on an additional 96-well plate treated in an identical manner, but substituting the 25 μL of viral stock for 25 μL of growth media. […] EC50 ranges are as follows: A<0.4 μM; B 0.4-0.8 μM; C>0.8 μM.

Compound: CCc1ncc(-c2sc(C(F)(F)F)nc2-c2nnc(N[C@@H]3N=C(c4ccccc4)c4cccc(F)c4NC3=O)o2)cn1 [Example 42]
- EC50 [1]: < 400 nM
- EC50 [2]: < 400 nM

Compound: CCc1ncc(-c2sc(C3CC3)nc2-c2nnc(N[C@H]3N=C(c4ccccc4)c4cccc(F)c4NC3=O)o2)cn1 [Example 43]
- EC50 [1]: < 400 nM
- EC50 [2]: < 400 nM

Compound: CCc1ncc(-c2sc(C3CC3)nc2-c2nnc(N[C@@H]3N=C(c4ccccc4)c4cccc(F)c4NC3=O)o2)cn1 [Example 44]
- EC50 [1]: < 400 nM
- EC50 [2]: < 400 nM

Compound: O=C1Nc2c(F)cccc2C(c2ccccc2)=N[C@H]1Nc1nnc(-c2nc(C3CC3)sc2-c2cnc(C3CC3)nc2)o1 [Example 47]
- EC50 [1]: < 400 nM
- EC50 [2]: < 400 nM

Compound: O=C1Nc2c(F)cccc2C(c2ccccc2)=N[C@@H]1Nc1nnc(-c2nc(C3CC3)sc2-c2cnc(C3CC3)nc2)o1 [Example 48]
- EC50 [1]: < 400 nM
- EC50 [2]: < 400 nM

Compound: CCc1ncc(-c2sc(C3CC3)nc2-c2nnc(N[C@@H]3N=C(c4ccccc4)c4ccccc4NC3=O)o2)cn1 [Example 49]
- EC50 [1]: < 400 nM
- EC50 [2]: 400 to 800 nM

Compound: CCc1ncc(-c2sc(C3CC3)nc2-c2nnc(N[C@H]3N=C(c4ccccc4)c4ccccc4NC3=O)o2)cn1 [Example 50]
- EC50 [1]: < 400 nM
- EC50 [2]: < 400 nM

Compound: CCc1nc(-c2nnc(N[C@@H]3N=C(c4ccccc4)c4cccc(F)c4NC3=O)o2)c(-c2cnc(C)nc2)s1 [Example 51]
- EC50 [1]: < 400 nM
- EC50 [2]: 400 to 800 nM

Compound: CCc1nc(-c2nnc(N[C@H]3N=C(c4ccccc4)c4cccc(F)c4NC3=O)o2)c(-c2cnc(C)nc2)s1 [Example 52]
- EC50 [1]: < 400 nM
- EC50 [2]: < 400 nM

Compound: CCc1nc(-c2nnc(N[C@@H]3N=C(c4ccccc4)c4cccc(F)c4NC3=O)o2)c(-c2cnc(C3CC3)nc2)s1 [Example 53]
- EC50 [1]: < 400 nM
- EC50 [2]: 400 to 800 nM

Compound: CCc1nc(-c2nnc(N[C@H]3N=C(c4ccccc4)c4cccc(F)c4NC3=O)o2)c(-c2cnc(C3CC3)nc2)s1 [Example 54]
- EC50 [1]: < 400 nM
- EC50 [2]: < 400 nM

Compound: Cc1ncc(-c2sc(C3CC3)nc2-c2nnc(N[C@@H]3N=C(c4ccccc4)c4cccc(F)c4NC3=O)o2)cn1 [Example 55]
- EC50 [1]: < 400 nM
- EC50 [2]: > 800 nM

Compound: Cc1ncc(-c2sc(C3CC3)nc2-c2nnc(N[C@H]3N=C(c4ccccc4)c4cccc(F)c4NC3=O)o2)cn1 [Example 56]
- EC50 [1]: < 400 nM
- EC50 [2]: < 400 nM

Compound: CCc1ncc(-c2sc(C3CCC3)nc2-c2nnc(N[C@H]3N=C(c4ccccc4)c4cccc(F)c4NC3=O)o2)cn1 [Example 58]
- EC50 [1]: < 400 nM
- EC50 [2]: < 400 nM

Compound: CCc1ncc(-c2sc(C3CCC3)nc2-c2nnc(N[C@@H]3N=C(c4ccccc4)c4cccc(F)c4NC3=O)o2)cn1 [Example 59]
- EC50 [1]: < 400 nM
- EC50 [2]: < 400 nM

Compound: Cc1ncc(-c2sc(C3CCC3)nc2-c2nnc(N[C@@H]3N=C(c4ccccc4)c4cccc(F)c4NC3=O)o2)cn1 [Example 60]
- EC50 [1]: < 400 nM
- EC50 [2]: < 400 nM

Compound: Cc1ncc(-c2sc(C3CCC3)nc2-c2nnc(N[C@H]3N=C(c4ccccc4)c4cccc(F)c4NC3=O)o2)cn1 [Example 61]
- EC50 [1]: < 400 nM
- EC50 [2]: < 400 nM

Compound: CCc1ncc(-c2sc(C3(C(F)(F)F)CC3)nc2-c2nnc(N[C@@H]3N=C(c4ccccc4)c4cccc(F)c4NC3=O)o2)cn1 [Example 62]
- EC50 [1]: < 400 nM
- EC50 [2]: 400 to 800 nM

Compound: CCc1ncc(-c2sc(C3(C(F)(F)F)CC3)nc2-c2nnc(N[C@H]3N=C(c4ccccc4)c4cccc(F)c4NC3=O)o2)cn1 [Example 63]
- EC50 [1]: < 400 nM
- EC50 [2]: < 400 nM

Compound: O=C1Nc2c(F)cccc2C(c2ccccc2)=N[C@H]1Nc1nnc(-c2nc(C3CCC3)sc2-c2cnc(C3CC3)nc2)o1 [Example 64]
- EC50 [1]: < 400 nM
- EC50 [2]: > 800 nM

Compound: O=C1Nc2c(F)cccc2C(c2ccccc2)=N[C@@H]1Nc1nnc(-c2nc(C3CCC3)sc2-c2cnc(C3CC3)nc2)o1 [Example 65]
- EC50 [1]: < 400 nM
- EC50 [2]: < 400 nM

Compound: Cc1ncc(-c2sc(C3(C)CC3)nc2-c2nnc(N[C@@H]3N=C(c4ccccc4)c4cccc(F)c4NC3=O)o2)cn1 [Example 66]
- EC50 [1]: < 400 nM
- EC50 [2]: 400 to 800 nM

Compound: Cc1ncc(-c2sc(C3(C)CC3)nc2-c2nnc(N[C@H]3N=C(c4ccccc4)c4cccc(F)c4NC3=O)o2)cn1 [Example 67]
- EC50 [1]: < 400 nM
- EC50 [2]: < 400 nM

Compound: CCc1ncc(-c2sc(C3(C)CC3)nc2-c2nnc(N[C@@H]3N=C(c4ccccc4)c4cccc(F)c4NC3=O)o2)cn1 [Example 68]
- EC50 [1]: < 400 nM
- EC50 [2]: < 400 nM

Compound: CCc1ncc(-c2sc(C3(C)CC3)nc2-c2nnc(N[C@H]3N=C(c4ccccc4)c4cccc(F)c4NC3=O)o2)cn1 [Example 69]
- EC50 [1]: < 400 nM
- EC50 [2]: < 400 nM

Compound: CCc1ncc(-c2sc(C3(C(F)(F)F)CC3)nc2-c2nnc(N[C@@H]3N=C(c4ccccc4)c4ccccc4NC3=O)o2)cn1 [Example 70]
- EC50 [1]: > 800 nM
- EC50 [2]: > 800 nM

Compound: CCc1ncc(-c2sc(C3(C(F)(F)F)CC3)nc2-c2nnc(N[C@H]3N=C(c4ccccc4)c4ccccc4NC3=O)o2)cn1 [Example 71]
- EC50 [1]: < 400 nM
- EC50 [2]: < 400 nM

Compound: Cc1ncc(-c2sc(C3(C(F)(F)F)CC3)nc2-c2nnc(N[C@@H]3N=C(c4ccccc4)c4cccc(F)c4NC3=O)o2)cn1 [Example 72]
- EC50 [1]: < 400 nM
- EC50 [2]: > 800 nM

Compound: Cc1ncc(-c2sc(C3(C(F)(F)F)CC3)nc2-c2nnc(N[C@H]3N=C(c4ccccc4)c4cccc(F)c4NC3=O)o2)cn1 [Example 73]
- EC50 [1]: < 400 nM
- EC50 [2]: < 400 nM

Compound: O=C1Nc2c(F)cccc2C(c2ccccc2)=N[C@H]1Nc1nnc(-c2nc(C3(C(F)(F)F)CC3)sc2-c2cnc(C3CC3)nc2)o1 [Example 74]
- EC50 [1]: < 400 nM
- EC50 [2]: > 800 nM

Compound: O=C1Nc2c(F)cccc2C(c2ccccc2)=N[C@@H]1Nc1nnc(-c2nc(C3(C(F)(F)F)CC3)sc2-c2cnc(C3CC3)nc2)o1 [Example 75]
- EC50 [1]: < 400 nM
- EC50 [2]: < 400 nM

Compound: O=C1Nc2c(F)cccc2C(c2ccccc2)=N[C@@H]1Nc1nnc(-c2ncc(C3CC3)cc2-c2cnc(C3CC3)nc2)o1 [Example 76]
- EC50 [1]: < 400 nM
- EC50 [2]: < 400 nM

Compound: O=C1Nc2ccccc2C(c2ccccc2)=N[C@@H]1Nc1nnc(-c2ncc(C3CC3)cc2-c2cnc(C3CC3)nc2)o1 [Example 77]
- EC50 [1]: < 400 nM
- EC50 [2]: < 400 nM

Compound: O=C1Nc2ccccc2C(c2ccccc2)=N[C@@H]1Nc1nnc(-c2ncc(CO)cc2-c2cnc(C3CC3)nc2)o1 [Example 97]
- EC50 [1]: < 400 nM
- EC50 [2]: < 400 nM

Compound: O=C1Nc2ccccc2C(c2ccccc2)=N[C@@H]1Nc1nnc(-c2ncc(C(F)F)cc2-c2cnc(C3CC3)nc2)o1 [Example 98]
- EC50 [1]: < 400 nM
- EC50 [2]: < 400 nM

Compound: Cc1cnc(-c2nnc(N[C@H]3N=C(c4ccccc4)c4ccccc4NC3=O)o2)c(-c2cnc(C3CC3)nc2)c1 [Example 99]
- EC50 [1]: < 400 nM
- EC50 [2]: < 400 nM
